Assay results from article PMC12216609, “Inhibitors of eIF1A-ribosome interaction unveil uORF-dependent regulation of translation initiation and antitumor and antiviral effects” (The EMBO Journal, 2025).
Where “and” joins values, the source holds several entries; their conditions need not be identical. Equal values may be shown once. Read-outs that look alike come from different tables or passages of the source.

Legend:
[1] = test system: IRF7 5'UTR firefly luciferase reporter in HEK293T cells; settings: for Reference vs IRF7 (Final data, Fig. 1E): 1/Result, relative to DMSO; for LONG (summary - All), normalized to DMSO / SHORT (summary - All), normalized to DMSO: individual replicates, outliers excluded, DMSO = 1; for SHORT (summary - All), normalized to DMSO: Short reporter; for average ( long vs short ratio): summary - All;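 as to all read-outs here: luciferase signal corrected by a co-transfected GFP reporter for transfection efficiency, read after overnight compound exposure, with Long and Short reporters differing in 5'UTR length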
Method: For the effect on ribosomal scanning, we used two firefly luciferase reporter genes that differ in their 5'UTR length (Fig. 1C). […] Cells were transfected with these reporters along with a GFP reporter gene used to normalize transfection efficiency. After an overnight 1Ai or DMSO (vehicle control) exposure, luciferase and GFP expression were measured, and normalized activity was determined.
For the reference vs IRF7 5'UTR luciferase reporter assay, HEK239T cells in a 12-well plate were transfected with the previously described IRF7 5'UTR or reference firefly luciferase reported genes (Sehrawat et al, [2019]) (100 ng/well) together with GFP (20 ng/well) that served as an internal control by CaCl2 transfection. After 6 h, half of the growth medium was replaced with a medium containing the different compounds, reaching a final concentration of 20 µM. Twenty-four hours after transfection, transfection efficiency was evaluated using GFP fluorescence intensity (Cytation 5, ex/em: 470/525). Cells were harvested in 50 µL Reported lysis buffer (RLB) and put on a shaker for 10 min. From each well 5 µL were taken in duplicates and tested by luminometer.

[2] = test system: cap-proximal AUG GFP reporter in HEK293T cells; assay type: cell-based; settings: GFP WB densitometry; 20 µM overnight; dmso 0.965946;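 also: ratio of upstream to downstream AUG initiation products on GFP Western blot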
[3] = test system: CUG/GUG vs AUG start codon luciferase reporters in HEK293T cells; experiment: Near-cognate AUG starting codon fidelity reporter assay (GUG, CUG vs AUG); assay type: cell-based; settings: for average CUG and GUG / average CUG and GUG relative to DMSO / CUG Average / GUG Average: NUG experiment; for CUG Average: CUG vs AUG reporter; for GUG Average: GUG vs AUG reporter; for NUG (Final data, Fig. 1E): average CUG and GUG relative to DMSO, 20 µM overnight; for GUG vs AUG data (%) / GUG vs AUG (%) Average: compound at 20uM; for GUG vs AUG data (%): individual repeat; for GUG vs AUG (%) Average: summary average of repeats, DMSO control average […]; for CUG vs AUG (%): CUG start codon reporter relative to AUG reporter (AUG = 100); for CUG vs AUG (%) / GUG vs AUG (%): compound at 20uM (summary head), single-experiment calculation; for GUG vs AUG (%): GUG start codon reporter relative to AUG reporter (AUG = 100)
eIF1A = target: T1, eIF1A (Homo sapiens, UniProt P47813); assay type: binding; settings: for fluorescence ratio, eIF1A: background-corrected, relative to DMSO or lowest 1Ai concentration, replicate columns
T1 construct: His-bdSUMO (cleaved yes); made in house; host or cells: E. coli BL-21
T1 sequence (P47813 whole entry): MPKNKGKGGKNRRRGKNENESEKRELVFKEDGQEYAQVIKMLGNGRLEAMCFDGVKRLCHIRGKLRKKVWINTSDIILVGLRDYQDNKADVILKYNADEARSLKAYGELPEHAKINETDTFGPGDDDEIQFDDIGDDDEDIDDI

RPS10 = target: T2, RPS10 (Homo sapiens, UniProt P46783); assay type: binding; settings: for RPS10 IC50: fluorescence binding
T2 construct: made in house; host or cells: E. coli BL-21

[4] = eIF1A, from the titration data, read-out: IC50 (eIF1A titration block)
[5] = summary table, fluorescence binding assay, read-out: IC50 concentration (µM), WT eIF1A
[6] = summary table, fluorescence binding assay

Compound	Reference vs IRF7 (Final data, Fig. 1E) ([1]; 20 µM)	LONG (summary - All), normalized to DMSO ([1]; Long reporter, 20 µM)	SHORT (summary - All), normalized to DMSO ([1]; 20 µM)	average ( long vs short ratio) ([1]; 20 µM)	US/DS ratio, average [2]	average CUG and GUG [3]	average CUG and GUG relative to DMSO [3]	CUG Average [3]	GUG Average [3]	NUG (Final data, Fig. 1E) [3]	GUG vs AUG data (%) [3]	GUG vs AUG (%) Average [3]	fluorescence ratio, eIF1A (eIF1A; 1Ai conc. 0.25 uM)	fluorescence ratio, eIF1A (eIF1A; 1Ai conc. 0.5 uM)	fluorescence ratio, eIF1A (eIF1A; 1Ai conc. 1 uM)	fluorescence ratio, eIF1A (eIF1A; 1Ai conc. 2 uM)	fluorescence ratio, eIF1A (eIF1A; 1Ai conc. 4 uM)	fluorescence ratio, eIF1A (eIF1A; 1Ai conc. 8 uM)	fluorescence ratio, eIF1A (eIF1A; 1Ai conc. 16 uM)	fluorescence ratio, eIF1A (eIF1A; 1Ai conc. 32 uM)	also measured
CN1CCN(S(=O)(=O)c2ccc(N3Cc4cc5c(cc4C4(CCCC4)C3)OCCO5)nc2)CC1 [1Ai-3564]	1.762	0.26 and 0.60 and 0.49 and 0.43 and 0.25	0.54 and 0.80 and 0.85 and 0.72 and 0.67	0.568	0.4649	6.96	1.543	10.8773	3.042	1.543	2.43% and 3.12% and 4.52% and 2.10%	3.04%	1.044 and 1	1.089 and 1.095	1.239 and 0.9891	1.143 and 0.9513	1.209 and 0.9045	1.156 and 0.8599	1.357 and 1.021	1.557 and 1.107	Long 5'UTR reporter luciferase activity, normalized to DMSO (=1), single replicates ([1]; compound at 20 µM, left data block (Long), source data of Fig 1C): 0.261 and 0.6001 and 0.4877 and 0.4313 and 0.2492; fluorescence ratio, eIF1A (eIF1A; 1Ai conc. 64 uM): 1.6 and 1.164; fluorescence ratio, eIF1A (eIF1A; 1Ai conc. 256 uM): 1.73 and 1.413; IC50 (eIF1A; [4]): 35.2 µM; IC50 (eIF1A; [5]): 35.3 µM; RPS10 fluorescence ratio to control (RPS10; 1Ai conc. 0.25 uM): 1; RPS10 fluorescence ratio to control (RPS10; 1Ai conc. 0.5 uM): 0.8515; RPS10 fluorescence ratio to control (RPS10; 1Ai conc. 1 uM): 0.9657; RPS10 fluorescence ratio to control (RPS10; 1Ai conc. 2 uM): 0.9853; RPS10 fluorescence ratio to control (RPS10; 1Ai conc. 4 uM): 0.8932; RPS10 fluorescence ratio to control (RPS10; 1Ai conc. 8 uM): 0.9434; RPS10 fluorescence ratio to control (RPS10; 1Ai conc. 16 uM): 0.942; RPS10 fluorescence ratio to control (RPS10; 1Ai conc. 32 uM): 1; RPS10 fluorescence ratio to control (RPS10; 1Ai conc. 64 uM): 1.142; RPS10 fluorescence ratio to control (RPS10; 1Ai conc. 256 uM): 1.206; RPS10 IC50 (RPS10): No binding; IC50 concentration (µM), RPS10 (RPS10; [6]): No binding
O=C(COc1ccccc1[N+](=O)[O-])NCc1ccc(-c2ccc(Br)cc2)o1 [1Ai-4700]	2.452	0.84 and 0.38 and 0.21 and 0.60	1.10 and 0.65 and 2.34 and 0.87	0.408	0.7947	6.461	1.433	9.432	3.49	1.433	3.85% and 2.62% and 3.02% and 4.47%	3.49%	1.051 and 0.9016	1.104 and 0.9037	1.126 and 0.8562	1.098 and 0.832	1.037 and 0.7686	0.8525 and 0.6514	0.7753 and 0.6291	0.583 and 0.5184	CUG vs AUG (%) [3]: 5.455%; GUG vs AUG (%) [3]: 0.6501%; fluorescence ratio, eIF1A (eIF1A; 1Ai conc. 64 uM): 0.4409 and 0.3702; fluorescence ratio, eIF1A (eIF1A; 1Ai conc. 256 uM): 0.3305 and 0.2635; IC50 (eIF1A; [4]): 20.9 µM; IC50 (eIF1A; [5]): 20.9 µM; RPS10 fluorescence ratio to control (RPS10; 1Ai conc. 0.25 uM): 1; RPS10 fluorescence ratio to control (RPS10; 1Ai conc. 0.5 uM): 0.9948; RPS10 fluorescence ratio to control (RPS10; 1Ai conc. 1 uM): 1.113; RPS10 fluorescence ratio to control (RPS10; 1Ai conc. 2 uM): 1.071; RPS10 fluorescence ratio to control (RPS10; 1Ai conc. 4 uM): 0.9943; RPS10 fluorescence ratio to control (RPS10; 1Ai conc. 8 uM): 0.904; RPS10 fluorescence ratio to control (RPS10; 1Ai conc. 16 uM): 0.762; RPS10 fluorescence ratio to control (RPS10; 1Ai conc. 32 uM): 0.6123; RPS10 fluorescence ratio to control (RPS10; 1Ai conc. 64 uM): 0.5202; RPS10 fluorescence ratio to control (RPS10; 1Ai conc. 256 uM): 0.4416; IC50 (RPS10; read-out: IC50 (line under RPS10 binding data)): 4.9 µM; IC50 (RPS10; read-out: RPS10 IC50): 4.9 µM; IC50 (RPS10; summary table, fluorescence binding assay, read-out: IC50 concentration (µM), RPS10): 4.9 µM
O=C(C=Cc1ccc(Cl)s1)Nc1cccc2ncccc12 [1Ai-4860]	1.848	0.47 and 0.69 and 0.42 and 0.61	0.84 and 1.62 and 0.77	0.541	1.03	2.314	0.5131	3.6331	0.9953	0.513	1.48% and 1.00%	1.24%	1.378 and 0.7463	1.41 and 0.8167	1.444 and 0.7972	1.487 and 1.19	1.443 and 1.135	0.951 and 1.007	1.0935 and 0.6993	1.055 and 0.7323	Long: Normalized to average DMSO ([1]; data section, Long reporter, GFP-corrected, 20 µM, per experiment, includes values excluded as outliers): 0.471 and 0.6925 and 0.4245 and 0.6135; CUG vs AUG (%) [3]: 3.6331%; GUG vs AUG (%) [3]: 0.9953%; fluorescence ratio, eIF1A (eIF1A; 1Ai conc. 64 uM): 1.155 and 0.874; fluorescence ratio, eIF1A (eIF1A; 1Ai conc. 256 uM): 1.071 and 0.7793; WT eIF1A IC50 (eIF1A; fluorescence binding): No binding; IC50 concentration (µM), WT eIF1A (eIF1A; [6]): No binding; RPS10 fluorescence ratio to control (RPS10; 1Ai conc. 0.25 uM): 0.9517; RPS10 fluorescence ratio to control (RPS10; 1Ai conc. 0.5 uM): 0.9517; RPS10 fluorescence ratio to control (RPS10; 1Ai conc. 1 uM): 0.8947; RPS10 fluorescence ratio to control (RPS10; 1Ai conc. 2 uM): 0.9408; RPS10 fluorescence ratio to control (RPS10; 1Ai conc. 4 uM): 0.8788; RPS10 fluorescence ratio to control (RPS10; 1Ai conc. 8 uM): 0.814; RPS10 fluorescence ratio to control (RPS10; 1Ai conc. 16 uM): 0.7263; RPS10 fluorescence ratio to control (RPS10; 1Ai conc. 32 uM): 0.7395; RPS10 fluorescence ratio to control (RPS10; 1Ai conc. 64 uM): 0.7335; RPS10 fluorescence ratio to control (RPS10; 1Ai conc. 256 uM): 0.5649; RPS10 IC50 (RPS10): No binding; IC50 concentration (µM), RPS10 (RPS10; [6]): No binding
